Biological target: T1, HDM2 (Homo sapiens, UniProt Q00987)
T1 construct: Thioredoxin (N); made in house; host or cells: E. coli strain BL21(DE3)Rosetta
Test: HDM2 FRET assay (inhibition of binding of FITC labeled p53-pocket peptide to HDM2)
Details: Table 22; read-out: FRET IC50
In short: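 TR-FRET with 0.5 nM His-tagged recombinant HDM2, 3 nM FITC-labelled p53 peptide and 0.25 nM Tb-anti-His antibody in PBS, 0.01% BSA, 0.01% Tween-20, 0.1% DMSO. IC50 from em520/em495 ratio over 10-point dilutions, 4-parameter logistic fit.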

T1 sequence (Q00987 17-125): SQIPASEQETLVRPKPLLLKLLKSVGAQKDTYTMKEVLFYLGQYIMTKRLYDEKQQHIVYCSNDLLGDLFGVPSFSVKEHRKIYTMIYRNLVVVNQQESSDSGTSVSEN

For `C[C@@H](Nc1nc(-c2noc(=O)[nH]2)nc2nc(C(O)C3CCC3)n(C[C@H]3CC[C@H](C)CC3)c12)C1CCC1` (stereo partly drawn) [Example 22.57, 3-(6-{[(1R)-1-cyclobutylethyl]amino}-8-[cyclobutyl(hydroxy)methyl]-7-[(trans-4-methylcyclohexyl)methyl] -7H-purin-2-yl)-1,2,4-oxadiazol-5(4H)-one], which IC50 is on record?
The IC50 was 9.75 nM.

With `C[C@@H](Nc1nc(-c2noc(=O)[nH]2)nc2nc(C(C)(O)c3nccs3)n(C[C@H]3CC[C@H](C)CC3)c12)C1CCC1` (stereo partly drawn) [Example 22.58, 3-(6-{[(1R)-1-cyclobutylethyl]amino}-8-[1-hydroxy-1-(1,3-thiazol-2-yl)ethyl]-7-[(trans-4-methylcyclohexyl)methyl] -7H-purin-2-yl)-1,2,4-oxadiazol-5(4H)-one] as the compound, how does the IC50 read?
The IC50 was 7.21 nM.

With `C[C@@H](Nc1nc(-c2noc(=O)[nH]2)nc2nc(C3(c4nccs4)CC3)n(C[C@H]3CC[C@H](C)CC3)c12)C1CCC1` [Example 22.59, 3-(6-{[(1R)-1-cyclobutylethyl]amino}-7-[(trans-4-methylcyclohexyl)methyl] -8-[1-(1,3-thiazol-2-yl)cyclopropyl]-7H-purin-2-yl)-1,2,4-oxadiazol-5(4H)-one] as the compound, how does the IC50 read?
Its IC50 is 2.3 nM.

How did the IC50 turn out when `C[C@@H](Nc1nc(-c2noc(=O)[nH]2)nc2nc(C3(c4cnn(C)c4)CC3)n(C[C@H]3CC[C@H](C)CC3)c12)C1CCC1` [Example 22.63, 3-(6-{[(1R)-1-cyclobutylethyl]amino}-7-[(trans-4-methylcyclohexyl)methyl] -8-[1-(1-methyl-1H-pyrazol-4-yl)cyclopropyl]-7H-purin-2-yl)-1,2,4-oxadiazol-5(2H)-one] was run?
The IC50 was 7.93 nM.

`C[C@@H](Nc1nc(-c2noc(=O)[nH]2)nc2nc(C3(O)CCOCC3)n(C[C@H]3CC[C@H](C)CC3)c12)C1CCC1` [Example 22.64, 3-(6-{[(1R)-1-cyclobutylethyl]amino}-8-(4-hydroxytetrahydro-2H-pyran-4-yl)-7-[(trans-4-methylcyclohexyl)methyl] -7H-purin-2-yl)-1,2,4-oxadiazol-5(4H)-one] was tested. Which IC50 did it give?
Its IC50 is 49 nM.

With `C[C@@H](Nc1nc(-c2noc(=O)[nH]2)nc2nc(C(F)c3ccccc3)n(C[C@H]3CC[C@H](C)CC3)c12)C1CCC1` (stereo partly drawn) [Example 22.66, 3-(6-{[(1R)-1-cyclobutylethyl]amino}-8-[fluoro(phenyl)methyl]-7-[(trans-4-methylcyclohexyl)methyl] -7H-purin-2-yl)-1,2,4-oxadiazol-5(4H)-one] as the compound, how does the IC50 read?
The IC50 was 7.12 nM.

`C[C@@H](Nc1nc(-c2noc(=O)[nH]2)nc2nc(C3(O)CCC3)n(C[C@H]3CC[C@H](C)CC3)c12)C1CCC1` [Example 22.67, 3-(6-{[(1R)-1-cyclobutylethyl]amino}-8-(1-hydroxycyclobutyl)-7-[(trans-4-methylcyclohexyl)methyl] -7H-purin-2-yl)-1,2,4-oxadiazol-5(2H)-one] was tested. Which IC50 did it give?
Its IC50 is 19.3 nM.

With `C[C@@H](Nc1nc(-c2noc(=O)[nH]2)nc2nc(C3(F)CCC3)n(C[C@H]3CC[C@H](C)CC3)c12)C1CCC1` [Example 22.68, 3-(6-{[(1R)-1-cyclobutylethyl]amino}-8-(1-fluorocyclobutyl)-7-[(trans-4-methylcyclohexyl)methyl] -7H-purin-2-yl)-1,2,4-oxadiazol-5(4H)-one] as the compound, how does the IC50 read?
The IC50 was 16.9 nM.

Which IC50 does the source give for `COC1(c2nc3nc(-c4noc(=O)[nH]4)nc(N[C@H](C)C4CCC4)c3n2C[C@H]2CC[C@H](C)CC2)CCC1` [Example 22.69, 3-(6-{[(1R)-1-cyclobutylethyl]amino}-8-(1-methoxycyclobutyl)-7-[(trans-4-methylcyclohexyl)methyl] -7H-purin-2-yl)-1,2,4-oxadiazol-5(4H)-one] here?
The IC50 was 4.54 nM.

How did the IC50 turn out when `C[C@@H](Nc1nc(-c2noc(=O)[nH]2)nc2nc(C3CCC3)n(C[C@H]3CC[C@H](C)CC3)c12)C1CCC1` [Example 22.70, 3-(8-cyclobutyl-6-{[(1R)-1-cyclobutylethyl]amino}-7-[(trans-4-methylcyclohexyl)methyl]-7H-purin-2-yl)-1,2,4-oxadiazol-5(4H)-one] was run?
The IC50 was 15.1 nM.

`CC(c1ccccn1)c1nc2nc(-c3noc(=O)[nH]3)nc(N[C@H](C)C3CCC3)c2n1C[C@H]1CC[C@H](C)CC1` (stereo partly drawn) [Example 22.71, 3-[6-{[(1R)-1-cyclobutylethyl]amino}-7-[(trans-4-methylcyclohexyl)methyl] -8-(1-pyridin-2-ylethyl)-7H-purin-2-yl]-1,2,4-oxadiazol-5(4H)-one] was tested. Which IC50 did it give?
Its IC50 is 6.49 nM.

With `Cc1nc(C2(c3nc4nc(-c5noc(=O)[nH]5)nc(N[C@H](C)C5CCC5)c4n3C[C@H]3CC[C@H](C)CC3)CC2)c(C)s1` [Example 22.72, 3-(6-{[(1R)-1-cyclobutylethyl]amino}-8-[1-(2,5-dimethyl-1,3-thiazol-4-yl)cyclopropyl]-7-[(trans-4-methylcyclohexyl)methyl] -7H-purin-2-yl)-1,2,4-oxadiazol-5(4H)-one] as the compound, how does the IC50 read?
Its IC50 is 3.04 nM.

`COC(c1cscn1)c1nc2nc(-c3noc(=O)[nH]3)nc(N[C@H](C)C3CCC3)c2n1C[C@H]1CC[C@H](C)CC1` (stereo partly drawn) [Example 22.74, 3-(6-{[(1R)-1-cyclobutylethyl]amino}-8-[methoxy(1,3-thiazol-4-yl)methyl]-7-[(trans-4-methylcyclohexyl)methyl] -7H-purin-2-yl)-1,2,4-oxadiazol-5(4H)-one] was tested. Which IC50 did it give?
Its IC50 is 2.63 nM.

How did the IC50 turn out when `CCOC1(c2nc3nc(-c4noc(=O)[nH]4)nc(N[C@H](C)C4CCC4)c3n2C[C@H]2CC[C@H](C)CC2)CCC1` [Example 22.76, 3-(6-{[(1R)-1-cyclobutylethyl]amino}-8-(1-ethoxycyclobutyl)-7-[(trans-4-methylcyclohexyl)methyl] -7H-purin-2-yl)-1,2,4-oxadiazol-5(4H)-one] was run?
The IC50 was 4.22 nM.

With `C[C@@H](Nc1nc(-c2noc(=O)[nH]2)nc2nc(C(F)(F)c3ccccc3)n(C[C@H]3CC[C@H](C)CC3)c12)C1CCC1` [Example 22.79, 3-(6-{[(1R)-1-cyclobutylethyl]amino}-8-[difluoro(phenyl)methyl]-7-[(trans-4-methylcyclohexyl)methyl]-7H-purin-2-yl)-1,2,4-oxadiazol-5(4H)-one] as the compound, how does the IC50 read?
The IC50 was 3.36 nM.

For `C[C@@H](Nc1nc(-c2noc(=O)[nH]2)nc2nc(C3OCc4ccccc43)n(C[C@H]3CC[C@H](C)CC3)c12)C1CCC1` (stereo partly drawn) [Example 22.80, 3-(6-{[(1R)-1-cyclobutylethyl]amino}-8-(1,3-dihydro-2-benzofuran-1-yl)-7-[(trans-4-methylcyclohexyl)methyl]-7H-purin-2-yl)-1,2,4-oxadiazol-5(4H)-one], which IC50 is on record?
Its IC50 is 2.47 nM.

`C[C@@H](Nc1nc(-c2noc(=O)[nH]2)nc2nc(C3(c4ccccc4)CCO3)n(C[C@H]3CC[C@H](C)CC3)c12)C1CCC1` (stereo partly drawn) [Example 22.81, 3-[6-{[(1R)-1-cyclobutylethyl]amino}-7-[(trans-4-methylcyclohexyl)methyl]-8-(2-phenyloxetan-2-yl)-7H-purin-2-yl]-1,2,4-oxadiazol-5(4H)-one] was tested. Which IC50 did it give?
The IC50 was 11 nM.

Which IC50 does the source give for `CCC(CO)c1nc2nc(-c3noc(=O)[nH]3)nc(N[C@H](C)C3CCC3)c2n1C[C@H]1CC[C@H](C)CC1` (stereo partly drawn) [Example 22.82, 3-(6-{[(1R)-1-cyclobutylethyl]amino}-8-[1-(hydroxymethyl)propyl]-7-[(trans-4-methylcyclohexyl)methyl]-7H-purin-2-yl)-1,2,4-oxadiazol-5(4H)-one] here?
Its IC50 is 10.1 nM.

Same assay, conditions: Table 23; read-out: FRET IC50

How did the IC50 turn out when `C[C@H]1CC[C@H](Cn2c(C(=O)C3CCOCC3)nc3nc(-c4noc(=O)[nH]4)nc(-c4cccc(Cl)c4)c32)CC1` [Example 23.3, 3-[6-(3-chlorophenyl)-7-[(trans-4-methylcyclohexyl)methyl]-8-(tetrahydro-2H-pyran-4-ylcarbonyl)-7H-purin-2-yl]-1,2,4-oxadiazol-5(4H)-one] was run?
Its IC50 is 21.4 nM.

For `C[C@H]1CC[C@H](Cn2c(C(=O)C3CCCCC3)nc3nc(-c4noc(=O)[nH]4)nc(-c4cccc(Cl)c4)c32)CC1` [Example 23.6, 3-{6-(3-chlorophenyl)-8-(cyclohexylcarbonyl)-7-[(trans-4-methylcyclohexyl)methyl] -7H-purin-2-yl}-1,2,4-oxadiazol-5(4H)-one], which IC50 is on record?
The IC50 was 13.9 nM.

How did the IC50 turn out when `C[C@H]1CC[C@H](Cn2c(C(=O)C3CCOCC3)nc3nc(-c4n[nH]c(=O)o4)nc(-c4cccc(Cl)c4)c32)CC1` [Example 23.9, 5-[6-(3-chlorophenyl)-7-[(trans-4-methylcyclohexyl)methyl] -8-(tetrahydro-2H-pyran-4-ylcarbonyl)-7H-purin-2-yl]-1,3,4-oxadiazol-2(3H)-one] was run?
The IC50 was 24.6 nM.

`C[C@H]1CC[C@H](Cn2c(C3(F)COC3)nc3nc(-c4noc(=O)[nH]4)nc(-c4cncc(Cl)c4)c32)CC1` [Example 23.28, 3-{6-(5-chloropyridin-3-yl)-8-(3-fluorooxetan-3-yl)-7-[(trans-4-methylcyclohexyl)methyl]-7H-purin-2-yl}-1,2,4-oxadiazol-5(4H)-one] was tested. Which IC50 did it give?
The IC50 was 62.8 nM.

Which IC50 does the source give for `C[C@H]1CC[C@H](Cn2c(C3(F)CCC3)nc3nc(-c4n[nH]c(=O)o4)nc(-c4cncc(Cl)c4)c32)CC1` [Example 23.38, 5-{6-(5-chloropyridin-3-yl)-8-(1-fluorocyclobutyl)-7-[(trans-4-methylcyclohexyl)methyl] -7H-purin-2-yl}-1,3,4-oxadiazol-2(3H)-one] here?
Its IC50 is 31.1 nM.

For `C[C@H]1CC[C@H](Cn2c(C3(F)CCCCC3)nc3nc(-c4noc(=O)[nH]4)nc(-c4cncc(Cl)c4)c32)CC1` [Example 23.39, 3-{6-(5-chloropyridin-3-yl)-8-(1-fluorocyclohexyl)-7-[(trans-4-methylcyclohexyl)methyl] -7H-purin-2-yl}-1,2,4-oxadiazol-5(4H)-one], which IC50 is on record?
The IC50 was 18.1 nM.

How did the IC50 turn out when `C[C@H]1CC[C@H](Cn2c(C3(F)CCCC3)nc3nc(-c4n[nH]c(=O)o4)nc(-c4cncc(Cl)c4)c32)CC1` [Example 23.40, 5-{6-(5-chloropyridin-3-yl)-8-(1-fluorocyclopentyl)-7-[(trans-4-methylcyclohexyl)methyl] -7H-purin-2-yl}-1,3,4-oxadiazol-2(3H)-one] was run?
Its IC50 is 15 nM.

For `C[C@H]1CC[C@H](Cn2c(C(=O)c3ccccc3)nc3nc(-c4noc(=O)[nH]4)nc(-c4cccc(Cl)c4)c32)CC1` [Example 23.43, 3-[6-(3-chlorophenyl)-7-[(trans-4-methylcyclohexyl)methyl]-8-(phenylcarbonyl)-7H-purin-2-yl]-1,2,4-oxadiazol-5(4H)-one], which IC50 is on record?
Its IC50 is 72.7 nM.

— patent EP2951180B1, “2,6,7,8 SUBSTITUTED PURINES AS HDM2 INHIBITORS” (Merck Sharp & Dohme Corp., priority 2013, dated 2014)
